Measured values reported in patent US10227357B2, “Compounds and methods for kinase modulation, and indications therefor” (Plexxikon Inc., priority 2012, dated 2019).

What was measured:
c-kit kinase = target: T1, c-kit kinase (Homo sapiens, UniProt P10721); assay: c-Kit biochemical assay, AlphaScreen, 10 μM ATP; conditions: c-kit biochemical inhibitory activity; read-out: Biochemical activity (IC50 μM) Kit
T1 construct: The c-kit (or kinase domain thereof) is an active kinase in AlphaScreen; poly-Histidine tag (in-house protein only) (cleaved yes); host or cells: E. coli BL21(DE3)RIL, co-expressed with PTP1B
How it was run: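 His-tagged c-Kit expressed in E. coli with co-expressed PTP1B (dephosphorylated), tag removed; 0.1 ng per reaction with biotinylated-peptide substrate in 50 mM HEPES pH 7.2, 5 mM MgCl2, 5 mM MnCl2, 5% DMSO, 10 μM ATP, 1 h at room temperature. Phosphorylation detected by AlphaScreen (streptavidin donor, PY20 acceptor beads); IC50 from 8-point 1:3 dilution series.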

c-kit mutant D816V = target: T2, c-kit mutant D816V (Homo sapiens, UniProt P10721, D816V/DEL694-753); assay: c-Kit mutant D816V biochemical assay, AlphaScreen; conditions: c-kit D816V biochemical inhibitory activity; read-out: Biochemical activity (IC50 μM) Kit D816V
T2 construct: residues 551-934, kinase insertion domain residues 694-753 deleted; 6x-histidine (N); made in house; host or cells: E. coli Arctic Express (DE3) RIL (Stratagene)
How it was run: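 Purified His-tagged c-Kit D816V (E. coli-expressed) assayed in 25 mM HEPES pH 7.2 with Mg/Mn, 5% DMSO and 10 μM ATP, 30 min at room temperature, 8-point 1:3 dilutions. Phosphorylation detected by AlphaScreen with streptavidin donor and PY20 acceptor beads; IC50 from signal versus concentration.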

T2 sequence (P10721 with tags, fused parts or gaps DEL694-753/D816V): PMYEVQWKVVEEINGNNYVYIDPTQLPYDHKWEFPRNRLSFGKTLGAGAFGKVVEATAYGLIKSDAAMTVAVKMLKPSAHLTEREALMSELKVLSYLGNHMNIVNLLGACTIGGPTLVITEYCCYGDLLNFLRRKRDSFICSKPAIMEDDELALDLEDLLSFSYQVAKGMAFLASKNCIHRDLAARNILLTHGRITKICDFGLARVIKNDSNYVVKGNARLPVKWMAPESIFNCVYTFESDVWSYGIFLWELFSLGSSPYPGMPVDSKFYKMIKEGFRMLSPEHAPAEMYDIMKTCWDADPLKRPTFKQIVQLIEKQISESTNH
T1 sequence (P10721 26-976): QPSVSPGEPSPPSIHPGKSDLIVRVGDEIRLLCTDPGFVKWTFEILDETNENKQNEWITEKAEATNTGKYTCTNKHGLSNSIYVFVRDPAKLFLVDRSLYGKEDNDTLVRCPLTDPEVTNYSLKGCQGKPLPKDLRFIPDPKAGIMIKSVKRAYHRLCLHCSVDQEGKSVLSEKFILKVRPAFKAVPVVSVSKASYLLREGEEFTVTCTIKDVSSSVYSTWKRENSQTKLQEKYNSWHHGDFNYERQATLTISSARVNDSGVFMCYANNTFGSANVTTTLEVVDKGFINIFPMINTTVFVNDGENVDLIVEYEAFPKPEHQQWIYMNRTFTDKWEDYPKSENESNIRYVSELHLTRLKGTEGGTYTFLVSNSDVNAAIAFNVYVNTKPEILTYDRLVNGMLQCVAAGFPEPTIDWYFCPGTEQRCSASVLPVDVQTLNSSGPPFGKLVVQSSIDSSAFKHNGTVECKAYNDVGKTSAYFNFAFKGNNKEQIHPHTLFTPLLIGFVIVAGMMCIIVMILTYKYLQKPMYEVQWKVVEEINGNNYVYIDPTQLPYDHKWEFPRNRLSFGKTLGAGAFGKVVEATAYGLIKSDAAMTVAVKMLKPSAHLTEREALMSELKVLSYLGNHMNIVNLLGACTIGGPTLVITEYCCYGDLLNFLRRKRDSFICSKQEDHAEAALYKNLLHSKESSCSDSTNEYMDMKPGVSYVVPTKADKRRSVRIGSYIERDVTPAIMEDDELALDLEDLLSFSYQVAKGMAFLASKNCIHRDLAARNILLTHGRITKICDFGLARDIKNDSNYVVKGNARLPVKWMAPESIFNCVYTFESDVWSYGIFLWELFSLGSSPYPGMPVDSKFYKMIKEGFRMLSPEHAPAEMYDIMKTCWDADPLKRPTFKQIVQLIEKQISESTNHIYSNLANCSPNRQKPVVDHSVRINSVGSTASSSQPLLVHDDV

| SMILES | IC50 (c-kit kinase) [µM] | IC50 (c-kit mutant D816V) [µM] |
| --- | --- | --- |
| C[C@H](NC(=O)N1CCN(c2ncnc3cc(C4=CCN(C(=O)C5CC5)CC4)sc23)CC1(C)C)c1cccc(Cl)c1 [P-0552, N-[(1S)-1-(3-chlorophenyl)ethyl]-4-[6-[1-(cyclopropanecarbonyl)-3,6-dihydro-2H-pyridin-4-yl]thieno[3,2-d]pyrimidin-4-yl]-2,2-dimethyl-piperazine-1-carboxamide] | 0.0001 to 1 | 0.0001 to 1 |
| C[C@H](NC(=O)N1CCN(c2ncnc3cc(C4=CCN(S(C)(=O)=O)CC4)sc23)CC1(C)C)c1cccc(Cl)c1 [P-0553, N-[(1S)-1-(3-chlorophenyl)ethyl]-2,2-dimethyl-4-[6-(1-methylsulfonyl-3,6-dihydro-2H-pyridin-4-yl)thieno[3,2-d]pyrimidin-4-yl]piperazine-1-carboxamide] | 1 to 10 | 0.0001 to 1 |
| O=C(N1CC=C(c2cc3ncnc(-c4ccc(NS(=O)(=O)C5CC5)cc4)c3s2)CC1)N1CCOCC1 [P-0554, N-[4-[6-[1-(morpholine-4-carbonyl)-3,6-dihydro-2H-pyridin-4-yl]thieno[3,2-d]pyrimidin-4-yl]phenyl]cyclopropanesulfonamide] | 0.0001 to 1 | 0.0001 to 1 |
| CS(=O)(=O)Nc1ccc(-c2ncnc3cc(C4=CCN(C(=O)N5CCOCC5)CC4)sc23)cc1 [P-0555, N-[4-[6-[1-(morpholine-4-carbonyl)-3,6-dihydro-2H-pyridin-4-yl]thieno[3,2-d]pyrimidin-4-yl]phenyl]methanesulfonamide] | 0.0001 to 1 | 0.0001 to 1 |
| COc1cc(-c2cc3ncnc(N4CCN(C(=O)N[C@@H](C)c5cccc(Cl)c5)C(C)(C)C4)c3s2)ccn1 [P-0556, N-[(1S)-1-(3-chlorophenyl)ethyl]-4-[6-(2-methoxy-4-pyridyl)thieno[3,2-d]pyrimidin-4-yl]-2,2-dimethyl-piperazine-1-carboxamide] | 1 to 10 | 0.0001 to 1 |
| Cc1nc(C)c(-c2cc3ncnc(N4CCN(C(=O)N[C@@H](C)c5cccc(Cl)c5)C(C)(C)C4)c3s2)s1 [P-0557, N-[(1S)-1-(3-chlorophenyl)ethyl]-4-[6-(2,4-dimethylthiazol-5-yl)thieno[3,2-d]pyrimidin-4-yl]-2,2-dimethyl-piperazine-1-carboxamide] | 10 to 200 | 0.0001 to 1 |
| C[C@H](NC(=O)N1CCN(c2ncnc3cc(N4CCOCC4)sc23)CC1(C)C)c1cccc(Cl)c1 [P-0558, N-[(1S)-1-(3-chlorophenyl)ethyl]-2,2-dimethyl-4-(6-morpholinothieno[3,2-d]pyrimidin-4-yl)piperazine-1-carboxamide] | 1 to 10 | 0.0001 to 1 |
| CC(=N)Nc1ccc(-c2ncnc3cc(C4=CCN(C(=O)N5CCOCC5)CC4)sc23)cc1 [P-0559, N-[4-[6-[1-(morpholine-4-carbonyl)-3,6-dihydro-2H-pyridin-4-yl]thieno[3,2-d]pyrimidin-4-yl]phenyl]acetamidine] | 10 to 200 | 0.0001 to 1 |
| COc1cccc([C@H](C)NC(=O)N2CCN(c3ncnc4cc(N5CCOCC5)sc34)CC2(C)C)c1 [P-0560, N-[(1S)-1-(3-methoxyphenyl)ethyl]-2,2-dimethyl-4-(6-morpholinothieno[3,2-d]pyrimidin-4-yl)piperazine-1-carboxamide] | 1 to 10 | 0.0001 to 1 |
| O=C(N1CC=C(c2cc3ncnc(-c4ccc(NS(=O)(=O)c5ccc(F)cc5)cc4)c3s2)CC1)N1CCOCC1 [P-0561, 4-fluoro-N-[4-[6-[1-(morpholine-4-carbonyl)-3,6-dihydro-2H-pyridin-4-yl]thieno[3,2-d]pyrimidin-4-yl]phenyl]benzenesulfonamide] | 0.0001 to 1 | 0.0001 to 1 |
| Cc1nn(C)cc1-c1cc2ncnc(N3CCN(C(=O)N[C@@H](C)c4cccc(Cl)c4)C(C)(C)C3)c2s1 [P-0564, N-[(1S)-1-(3-chlorophenyl)ethyl]-4-[6-(1,3-dimethylpyrazol-4-yl)thieno[3,2-d]pyrimidin-4-yl]-2,2-dimethyl-piperazine-1-carboxamide] | 1 to 10 | 0.0001 to 1 |
| COc1cccc([C@H](C)NC(=O)N2CC3CCC2CN3c2ncnc3cc(-c4ccc(F)cc4)sc23)c1 (stereo partly drawn) [P-0566, 5-[6-(4-fluorophenyl)thieno[3,2-d]pyrimidin-4-yl]-N-[(1S)-1-(3-methoxyphenyl)ethyl]-2,5-diazabicyclo[2.2.2]octane-2-carboxamide] | 10 to 200 | 1 to 10 |
| COc1cccc([C@H](C)NC(=O)N2C3CCC2CN(c2ncnc4cc(-c5ccc(F)cc5)sc24)C3)c1 [P-0567, 3-[6-(4-fluorophenyl)thieno[3,2-d]pyrimidin-4-yl]-N-[(1S)-1-(3-methoxyphenyl)ethyl]-3,8-diazabicyclo[3.2.1]octane-8-carboxamide] | 10 to 200 | 0.0001 to 1 |
| CS(=O)(=O)N1CC=C(c2cc3ncnc(N4CCN(C(=O)NCc5ccc(F)cc5)CC4)c3s2)CC1 [P-0568, N-[(4-fluorophenyl)methyl]-4-[6-(1-methylsulfonyl-3,6-dihydro-2H-pyridin-4-yl)thieno[3,2-d]pyrimidin-4-yl]piperazine-1-carboxamide] | 1 to 10 | 0.0001 to 1 |
| C[C@H](NC(=O)N1CCN(c2ncnc3cc(C4=CC(C)(C)NC(C)(C)C4)sc23)CC1)c1cccc(Cl)c1 [P-0569, N-[(1S)-1-(3-chlorophenyl)ethyl]-4-[6-(2,2,6,6-tetramethyl-1,3-dihydropyridin-4-yl)thieno[3,2-d]pyrimidin-4-yl]piperazine-1-carboxamide] | 10 to 200 | 0.0001 to 1 |
| O=C(C1CC1)N1CC=C(c2cc3ncnc(-c4ccc(NS(=O)(=O)c5ccc(F)cc5)cc4)c3s2)CC1 [P-0570, N-[4-[6-[1-(cyclopropanecarbonyl)-3,6-dihydro-2H-pyridin-4-yl]thieno[3,2-d]pyrimidin-4-yl]phenyl]-4-fluoro-benzenesulfonamide] | 0.0001 to 1 | 0.0001 to 1 |
| O=C(C1CC1)N1CC=C(c2cc3ncnc(-c4ccc(NS(=O)(=O)C5CC5)cc4)c3s2)CC1 [P-0571, N-[4-[6-[1-(cyclopropanecarbonyl)-3,6-dihydro-2H-pyridin-4-yl]thieno[3,2-d]pyrimidin-4-yl]phenyl]cyclopropanesulfonamide] | 0.0001 to 1 | 0.0001 to 1 |
| CS(=O)(=O)Nc1ccc(-c2ncnc3cc(C4=CCN(C(=O)C5CC5)CC4)sc23)cc1 [P-0572, N-[4-[6-[1-(cyclopropanecarbonyl)-3,6-dihydro-2H-pyridin-4-yl]thieno[3,2-d]pyrimidin-4-yl]phenyl]methanesulfonamide] | 0.0001 to 1 | 0.0001 to 1 |
| C[C@H](NC(=O)N1CC=C(c2ncnc3cc(-c4ccc(F)cc4)sc23)CC1)c1cccc(OC(F)F)c1 [P-0573, N-[(1S)-1-[3-(difluoromethoxy)phenyl]ethyl]-4-[6-(4-fluorophenyl)thieno[3,2-d]pyrimidin-4-yl]-3,6-dihydro-2H-pyridine-1-carboxamide] | 10 to 200 | 1 to 10 |
| COc1cccc([C@H](C)NC(=O)N2CCN(c3ncnc4cc(C5=CC(C)(C)NC(C)(C)C5)sc34)CC2)c1 [P-0574, N-[(1S)-1-(3-methoxyphenyl)ethyl]-4-[6-(2,2,6,6-tetramethyl-1,3-dihydropyridin-4-yl)thieno[3,2-d]pyrimidin-4-yl]piperazine-1-carboxamide] | 1 to 10 | 0.0001 to 1 |
| C[C@H](NC(=O)N1CCN(c2ncnc3cc(-c4ccc(F)cc4)sc23)CC1(C)C)c1ccc(Cl)cc1 [P-0575, N-[(1S)-1-(4-chlorophenyl)ethyl]-4-[6-(4-fluorophenyl)thieno[3,2-d]pyrimidin-4-yl]-2,2-dimethyl-piperazine-1-carboxamide] | 10 to 200 | 0.0001 to 1 |
| COc1ccc([C@H](C)NC(=O)N2CCN(c3ncnc4cc(-c5ccc(F)cc5)sc34)CC2(C)C)cc1 [P-0576, 4-[6-(4-fluorophenyl)thieno[3,2-d]pyrimidin-4-yl]-N-[(1S)-1-(4-methoxyphenyl)ethyl]-2,2-dimethyl-piperazine-1-carboxamide] | 10 to 200 | 0.0001 to 1 |
| C[C@H](NC(=O)N1CCN(c2ncnc3cc(-c4ccc(F)cc4)sc23)CC1(C)C)c1cccc(OC(F)F)c1 [P-0577, N-[(1S)-1-[3-(difluoromethoxy)phenyl]ethyl]-4-[6-(4-fluorophenyl)thieno[3,2-d]pyrimidin-4-yl]-2,2-dimethyl-piperazine-1-carboxamide] | 10 to 200 | 0.0001 to 1 |
| C[C@H](NC(=O)N1CC=C(c2ncnc3cc(-c4ccc(F)cc4)sc23)CC1)c1cccc(Cl)c1 [P-0579, N-[(1S)-1-(3-chlorophenyl)ethyl]-4-[6-(4-fluorophenyl)thieno[3,2-d]pyrimidin-4-yl]-3,6-dihydro-2H-pyridine-1-carboxamide] | 10 to 200 | 1 to 10 |
| C[C@H](NC(=O)N1CCN(c2ncnc3cc(-c4ccc(F)cc4)sc23)CC1(C)C)c1cccc(Cl)c1 [P-0580, N-[(1S)-1-(3-chlorophenyl)ethyl]-4-[6-(4-fluorophenyl)thieno[3,2-d]pyrimidin-4-yl]-2,2-dimethyl-piperazine-1-carboxamide] | 10 to 200 | 0.0001 to 1 |
| COc1cccc([C@H](C)NC(=O)N2CC=C(c3ncnc4cc(-c5ccc(F)cc5)sc34)CC2)c1 [P-0581, 4-[6-(4-fluorophenyl)thieno[3,2-d]pyrimidin-4-yl]-N-[(1S)-1-(3-methoxyphenyl)ethyl]-3,6-dihydro-2H-pyridine-1-carboxamide] | 1 to 10 | 0.0001 to 1 |
